“Also recorded” adds a separate entry of the source.
Experiments:
fleas = experiment: Flea control on dogs; assay type: in vivo
Procedure: 15 dogs infested with fleas were treated with oleate. The oleate was sprayed from pump bottles. At the first treatment the dogs were sprayed with oleate in the groins, armpits and head/neck. At the second treatment, twenty-four hours later, the dogs were sprayed only in the armpits and behind the ears.

Musca domestica (larvae) = experiment: Larvae in culture medium with the composition, surviving larvae counted; assay type: in vivo; conditions: six days old larvae, 24° C., observed up to 36 hours
Procedure: (§1) As RB 86™ needs an emulsifier for dissolving this emulsifier was also tested. All tests were reiterated, making a total of five times for each. Throughout the study, houseflies (Musca domestica) of a laboratory strain (772a) obtained from Statens Skadedyrslaboratorium, Lyngby, Denmark, was used. Standard medium for culturing larvae consisted of baker's yeast, mill: powder, water and wheat bran.
Six days old larvae were placed in 1.5 litre plastic vessels (Cerbo™) containing 40 g culture medium and the respective composition a)-f). The vessels were placed in a climate room (24° C., RH %=75%±10%). Observations were performed whereby the number surviving larvae were registrated after 2, 5, 12, 24 and 36 hours.

Musca domestica (adult) = experiment: Adult flies in spray-treated Petri dishes, surviving flies counted; assay type: in vivo; conditions: 10 adult flies per pre-treated dish; RB 86 6%, Bionim 0.4%, potassium oleate 5% concentration
Procedure: as §1
Test vessels were Petri dishes made of glass with a diameter of 9 cm. With the help of a spraying bottle the bottoms of the vessels were treated with each of the compositions a)-f). After transferring 10 adult flies to each of the pre-treated dishes, the dishes were covered with plastic film and the registration started. Observations were performed by counting the surviving flies at the start, after 5 minutes and subsequently every 10th minute up to a total of 60 minutes. Two further observations were made after 1.5 and 2 hours from the start, respectively.

[1] = test system: M. domestica spiracle opening bristles; experiment: Effects on flies studied in scanning electron microscope; assay type: in vivo, Musca domestica; conditions: adult flies; Bionim 0.4%, potassium oleate 5%, Blidol 0.02%; SEM
From the text: A scanning electron microscope (SEM) was used to microscope adult flies treated with:
whereby morphological changes could be detected. These flies were photographed and compared with normal flies.
Morphological changes could be detected on the spiracle opening on the middle part of the body. Bristles (see FIG. 12) surround this breathing hole. […] Apparently these last mentioned effects are present when using the other compositions.

Structure (SMILES): CCCCCCCC/C=C\CCCCCCCC(=O)[O-].[K+] [Potassium oleate]
- fleas found on dogs (fleas; after the first spray treatment, 15 infested dogs): only one or two fleas were found on some dogs
- living fleas found (fleas; forty-eight hours later, after the second treatment): no living flea was found
- living fleas found at another check (fleas; four days later): the result was the same
- controlling effect on larvae (Musca domestica (larvae)): An effect could however be detected
- time within which all flies were killed (Musca domestica (adult)): ≤ 5 min
- deformation of bristles around the spiracle opening [1]: The bristles are minimally affected; also recorded: only showed minimal changes
